GI50 and ΔTm data for 17 compounds are collected here from patent EP4806898A1, “HETEROARYL DERIVATIVE COMPOUND AND USE THEREOF” (Voronoi Inc., priority 2023, dated 2025).

Read-outs that look alike come from different tables or passages of the source.

One may read the GI50 as the concentration giving 50% growth inhibition. As usually defined, the ΔTm is the change in melting temperature against a reference sample.

The subject of one test is UWB1.289 cells. As to the kind of experiment: Cell proliferation inhibitory activity in BRCA1/2-mutant or HRD-positive cells (Cell Titer-Glo). As to conditions: read-out: GI50 UWB1.289 BRCA1 mut. The test is classed as cell-based. The method in brief: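 UWB1.289 cells (1,000/well) in 50% MEBM/50% RPMI1640 exposed to […], final 1.5 nM to 10 µM, for 144 h at 37 °C. Viable cells measured by CellTiter-Glo luminescence; GI50 calculated.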
In general terms: Cellular ATP, detected with luciferase, serves as a proxy for viable cell number.

A further test deals with T1, recombinant USP1 protein (Homo sapiens, UniProt O94782, DEL125-138/DEL229-408/DEL608-737).
T1 sequence (O94782 with tags, fused parts or gaps DEL125-138/DEL229-408/DEL608-737): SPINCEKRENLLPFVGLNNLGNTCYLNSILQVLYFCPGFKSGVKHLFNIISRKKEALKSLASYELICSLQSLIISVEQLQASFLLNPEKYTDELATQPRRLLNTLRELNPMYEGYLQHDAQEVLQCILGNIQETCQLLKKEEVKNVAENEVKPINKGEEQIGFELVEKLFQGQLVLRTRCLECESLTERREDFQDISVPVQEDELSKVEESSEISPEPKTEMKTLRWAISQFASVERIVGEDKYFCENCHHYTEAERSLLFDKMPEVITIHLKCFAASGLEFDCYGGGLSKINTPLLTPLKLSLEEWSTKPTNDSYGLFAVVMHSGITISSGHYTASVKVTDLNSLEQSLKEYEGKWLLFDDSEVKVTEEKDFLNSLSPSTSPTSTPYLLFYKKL
As to the kind of experiment: Binding affinity to recombinant USP1 protein by differential scanning fluorimetry. The conditions noted are these: read-out: ΔTm (°C). The procedure, abridged:
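USP1 (Δ1-66, Δ125-138, Δ229-408, Δ608-737) at 0.03 mg/mL with dye in 50 mM Tris-HCl pH 8.0, 150 mM NaCl, 2% glycerol, 1 mM DTT; compounds at 100 µM final. Tm read on real-time PCR instrument; ΔTm = Tm with compound minus Tm with DMSO.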
A general note: Differential scanning fluorimetry follows unfolding on heating by fluorescence.

[1] abbreviates: UWB1289, UWB1.289 cells, 144 hours after compound treatment, Cell Titer-Glo, 1.5 nM to 10 µM.
[2] abbreviates: compound 100 µM, 0.03 mg/mL USP1 (Δ1-66, Δ125-138, Δ229-408, Δ608-737), Tm with compound minus Tm with DMSO.

For the compound `CNC(=O)c1cc2cnc(-c3c(OC)ncnc3C3CC3)nc2n1Cc1ccc(-c2nc(C(F)(F)F)c3n2CCCC3)cc1` [Example 200, 2-(4-cyclopropyl-6-methoxypyrimidin-5-yl)-N-methyl-7-(4-(1-(trifluoromethyl) -5,6,7,8-tetrahydroimidazo[1,5-a]pyridin-3-yl)benzyl)-7H-pyrrolo[2,3-d]pyrimidine-6-carboxamide], the 50% growth inhibitory concentration (GI50) in the test on UWB1.289 cells (setting [1]) is under 100 nM. The ΔTm at 100 µM on recombinant USP1 protein (setting [2]) is over 5 °C.

Regarding `COc1ncnc(C2CC2)c1-c1ncc2cc(C(=O)N3CC[C@H](O)C3)n(Cc3ccc(-c4nc(C(F)(F)F)cn4C(C)C)cc3)c2n1` [Example 117, (S)-(2-(4-cyclopropyl-6-methoxypyrimidin-5-yl)-7-(4-(1-isopropyl-4-(trifluoromethyl)-1H-imidazol-2-yl)benzyl)-7H-pyrrolo[2,3-d]pyrimidin-6-yl) (3-hydroxypyrrolidin-1-yl)methanone], the 50% growth inhibitory concentration (GI50) in the test with UWB1.289 cells (setting [1]) is under 100 nM. Further, the ΔTm at 100 µM at recombinant USP1 protein (setting [2]) is over 5 °C.

As to `COc1ncnc(C2CC2)c1-c1ncc2cc(C(=O)N[C@H]3C[C@H](OC)C3)n(Cc3ccc(-c4nc(C(F)(F)F)cn4C(C)C)cc3)c2n1` [Example 122, 2-(4-cyclopropyl-6-methoxypyrimidin-5-yl)-7-(4-(1-isopropyl-4-(trifluoromethyl)-1H-imidazol-2-yl)benzyl)-N-((1r,3r)-3-methoxycyclobutyl)-7H-pyrrolo[2,3-d]pyrimidine-6-carboxamide], the GI50 in the test on UWB1.289 cells (setting [1]) fell in the range of 100 to 500 nM. For the same compound, the ΔTm at 100 µM at recombinant USP1 protein (setting [2]) is over 5 °C.

`COc1ncnc(C2CC2)c1-c1ncc2cc(C(=O)NC3CCNC3)n(Cc3ccc(-c4nc(C(F)(F)F)cn4C(C)C)cc3)c2n1` (stereo not shown) [Example 41, 2-(4-cyclopropyl-6-methoxypyrimidin-5-yl)-7-(4-(1-isopropyl-4-(trifluoromethyl)-1H-imidazol-2-yl)benzyl)-N-(pyrrolidin-3-yl)-7H-pyrrolo[2,3-d]pyrimidine-6-carboxamide]: in the test with UWB1.289 cells (setting [1]), the 50% growth inhibitory concentration (GI50) was under 100 nM. Besides, the ΔTm at 100 µM at recombinant USP1 protein (setting [2]) is over 5 °C.

As to `CNC(=O)c1cc2cnc(-c3c(OC)ncnc3C3CC3)nc2n1Cc1ccc(-c2nc(C(F)(F)F)cn2[C@@H]2CCN(C)C[C@H]2F)cc1` [Example 187, 2-(4-cyclopropyl-6-methoxypyrimidin-5-yl)-7-(4-(1-((3R,4R)-3-fluoro-1-methylpiperidin-4-yl)-4-(trifluoromethyl)-1H-imidazol-2-yl)benzyl)-N-methyl-7H-pyrrolo[2,3-d]pyrimidine-6-carboxamide], the GI50 in the test with UWB1.289 cells (setting [1]) was under 100 nM. On recombinant USP1 protein (setting [2]), the ΔTm at 100 µM is over 5 °C.

For the compound `COc1ncnc(C2CC2)c1-c1ncc2cc(C(=O)NCC#N)n(Cc3ccc(-c4nc(C(F)(F)F)cn4C(C)C)cc3)c2n1` [Example 22, N-(cyanomethyl) - 2-(4-cyclopropyl-6-methoxypyrimidin-5-yl)-7-(4-(1-isopropyl-4-(trifluoromethyl)-1H-imidazol-2-yl)benzyl)-7H-pyrrolo[2,3-d]pyrimidine-6-carboxamide], the GI50 in the test on UWB1.289 cells (setting [1]) was under 100 nM. The ΔTm at 100 µM at recombinant USP1 protein (setting [2]) is over 5 °C.

Turning to `C=CCCNC(=O)c1cc2cnc(-c3c(OC)ncnc3C3CC3)nc2n1Cc1ccc(-c2nc(C(F)(F)F)cn2C(C)C)cc1` [Example 64, N-(but-3-en-1-yl)-2-(4-cyclopropyl-6-methoxypyrimidin-5-yl)-7-(4-(1-isopropyl-4-(trifluoromethyl)-1H-imidazol-2-yl)benzyl)-7H-pyrrolo[2,3-d]pyrimidine-6-carboxamide], the GI50 in the test on UWB1.289 cells (setting [1]) is 100 to 500 nM. The ΔTm at 100 µM on recombinant USP1 protein (setting [2]) was over 5 °C.

On to `COc1ncnc(C2CC2)c1-c1ncc2cc(C(=O)N[C@H]3CN(C)C[C@H]3F)n(Cc3ccc(-c4nc(C(F)(F)F)cn4C(C)C)cc3)c2n1` [Example 220, 2-(4-cyclopropyl-6-methoxypyrimidin-5-yl)-N-((3S,4R)-4-fluoro-1-methylpyrrolidin-3-yl)-7-(4-(1-isopropyl-4-(trifluoromethyl)-1H-imidazol-2-yl)benzyl)-7H-pyrrolo[2,3-d]pyrimidine-6-carboxamide], for which the GI50 in the test with UWB1.289 cells (setting [1]) was under 100 nM. In addition, the ΔTm at 100 µM on recombinant USP1 protein (setting [2]) was over 5 °C.

Take `COc1ncnc(C2CC2)c1-c1ncc2cc(C(=O)N3CC[C@@H](OC)C3)n(Cc3ccc(-c4nc(C(F)(F)F)cn4C(C)C)cc3)c2n1` [Example 123, (R) - (2-(4-cyclopropyl-6-methoxypyrimid in-5-yl)-7-(4-(1-isopropyl-4-(trifluoromethyl)-1H-imidazol-2-yl)benzyl)-7H-pyrrolo[2,3-d]pyrimidin-6-yl) (3-methoxypyrrolidin-1-yl)methanone]: the GI50 with UWB1.289 cells (UWB1289, 144 h) lay within 100 to 500 nM. The ΔTm at 100 µM on recombinant USP1 protein is over 5 °C.

As for `COc1ncnc(C2CC2)c1-c1ncc2cc(C(=O)N(C)C)n(Cc3ccc(-c4nc(C(F)(F)F)cn4C)cc3)c2n1` [Example 204, 2-(4-cyclopropyl-6-methoxypyrimidin-5-yl)-N,N-dimethyl-7-(4-(1-methyl-4-(trifluoromethyl)-1H-imidazol-2-yl)benzyl)-7H-pyrrolo[2,3-d]pyrimidine-6-carboxamide], the GI50 in the test with UWB1.289 cells (setting [1]) is under 100 nM. The ΔTm at 100 µM at recombinant USP1 protein (setting [2]) was over 5 °C.

Consider `COc1ncnc(C2CC2)c1-c1ncc2cc(C(=O)NCC3(C)COC3)n(Cc3ccc(-c4nc(C(F)(F)F)cn4C(C)C)cc3)c2n1` [Example 125, 2-(4-cyclopropyl-6-methoxypyrimidin-5-yl)-7-(4-(1-isopropyl-4-(trifluoromethyl)-1H-imidazol-2-yl)benzyl)-N-((3-methyloxetan-3-yl)methyl)-7H-pyrrolo[2,3-d]pyrimidine-6-carboxamide], for which the GI50 with UWB1.289 cells (setting [1]) is under 100 nM. The ΔTm at 100 µM at recombinant USP1 protein (setting [2]) was over 5 °C.

Regarding `COc1ncnc(C2CC2)c1-c1ncc2cc(C(=O)N[C@@H](C)C(F)(F)F)n(Cc3ccc(-c4nc(C(F)(F)F)cn4C(C)C)cc3)c2n1` [Example 86, (S)-2-(4-cyclopropyl-6-methoxypyrimidin-5-yl)-7-(4-(1-isopropyl-4-(trifluoromethyl)-1H-imidazol-2-yl)benzyl)-N-(1,1,1-trifluoropropan-2-yl)-7H-pyrrolo[2,3-d]pyrimidine-6-carboxamide], the concentration for 50% growth inhibition (GI50) in the test with UWB1.289 cells (setting [1]) is under 100 nM. In addition, the ΔTm at 100 µM at recombinant USP1 protein (setting [2]) was over 5 °C.

Regarding `COc1ncnc(C2CC2)c1-c1ncc2cc(C(=O)NC(C)C)n(Cc3ccc(-c4nc(C(F)(F)F)cn4C(C)C)cc3)c2n1` [Example 48, 2-(4-cyclopropyl-6-methoxypyrimidin-5-yl)-N-isopropyl-7-(4-(1-isopropyl-4-(trifluoromethyl)-1H-imidazol-2-yl)benzyl)-7H-pyrrolo[2,3-d]pyrimidine-6-carboxamide], the GI50 with UWB1.289 cells (setting [1]) is under 100 nM. Further, the ΔTm at 100 µM on recombinant USP1 protein (setting [2]) is over 5 °C.

`COc1ncnc(C2CC2)c1-c1ncc2cc(C(=O)NC[C@H]3CCCO3)n(Cc3ccc(-c4nc(C(F)(F)F)cn4C(C)C)cc3)c2n1` [Example 127, (R) -2-(4-cyclopropyl-6-methoxypyrimidin-5-yl)-7-(4-(1-isopropyl-4-(trifluoromethyl)-1H-imidazol-2-yl)benzyl)-N-((tetrahydrofuran-2-yl)methyl)-7H-pyrrolo[2,3-d]pyrimidine-6-carboxamide]: the GI50 in the test on UWB1.289 cells (setting [1]) was under 100 nM. The ΔTm at 100 µM at recombinant USP1 protein (setting [2]) is over 5 °C.

`COc1ncnc(C2CC2)c1-c1ncc2cc(C(=O)N3CCC4(CC3)CNCCO4)n(Cc3ccc(-c4nc(C(F)(F)F)cn4C(C)C)cc3)c2n1` [Example 94, (2-(4-cyclopropyl-6-methoxypyrimid in-5-yl)-7-(4-(1-isopropyl-4-(trifluoromethyl)-1H-imidazol-2-yl)benzyl)-7H-pyrrolo[2,3-d]pyrimidin-6-yl)(1-oxa-4,9-diazaspiro[5.5]undecan-9-yl)methanone]: the GI50 in the test on UWB1.289 cells (setting [1]) is 100 to 500 nM. Also, the ΔTm at 100 µM on recombinant USP1 protein (setting [2]) is over 5 °C.

Turning to `COc1ncnc(C2CC2)c1-c1ncc2cc(C(=O)NC[C@@H](O)C(C)C)n(Cc3ccc(-c4nc(C(F)(F)F)cn4C)cc3)c2n1` [Example 190, (S)-2-(4-cyclopropyl-6-methoxypyrimidin-5-yl)-N-(2-hydroxy-3-methylbutyl)-7-(4-(1-methyl-4-(trifluoromethyl)-1H-imidazol-2-yl)benzyl)-7H-pyrrolo[2,3-d]pyrimidine-6-carboxamide], in the test with UWB1.289 cells (setting [1]), the GI50 was under 100 nM. Besides, the shift in melting temperature (ΔTm) at 100 µM at recombinant USP1 protein (setting [2]) is over 5 °C.

`COc1ncnc(C2CC2)c1-c1ncc2cc(C(=O)NCCC3CC(F)(F)C3)n(Cc3ccc(-c4nc(C(F)(F)F)cn4C(C)C)cc3)c2n1` [Example 90, 2-(4-cyclopropyl-6-methoxypyrimidin-5-yl)-N-(2-(3,3-difluorocyclobutyl)ethyl)-7-(4-(1-isopropyl-4-(trifluoromethyl)-1H-imidazol-2-yl)benzyl)-7H-pyrrolo[2,3-d]pyrimidine-6-carboxamide]: in the test on UWB1.289 cells (setting [1]), the GI50 was under 100 nM. At recombinant USP1 protein (setting [2]), the ΔTm at 100 µM was over 5 °C.
